The source of these data is patent publication US20250040541A1, “AN ANTIMICROBIAL LIQUID COMPOSITION, PROCESS FOR PREPARING THE SAME AND METHOD OF USE THEREOF” (ISP Investments LLC, priority 2021, published 2025).

What all share (type): cell-based
The test system of test [1] is Fungi (Candida albicans 10231 and Aspergillus brasiliensis 16404). Description: 28-day double inoculation challenge test in sunscreen emulsion base, fungal inoculum. How it is done:
(§1) The test was conducted in sunscreen emulsion base, pH 7 (Table 3).
(§2) Method: The emulsion was formulated with 2% of the blend #1 or with the appropriate controls, plus water to add up to the 2% of the concentration in the emulsion.
(§3) Briefly, each tested sample was split into three containers to be challenged, respectively, with either of the three classes of common contaminants: Gram-positive bacteria, Gram-negative bacteria, and fungi. Accordingly, three types of inocula were prepared as outlined in the Table 4. The Gram-positive bacterial inoculum consisted of the single microorganism, while the Gram-negative bacterial inoculum and fungal inoculum, each, consisted of more than one species pooled together (Table 4).
(§4) The test samples were spiked with the microbial inoculum on days 0 and 21, with the final concentration of bacteria being 10^6 cfu/g and the final concentration of fungi being 10^5 cfu/g. Inoculated samples were incubated at ambient temperature. On days 2, 7, 21 and 28 the samples were plated to recover viable microorganisms. Letheen Agar was used for the recovery of bacteria and on Potato Dextrose Agar was used for the recovery of fungi.

For test [2], the system named is Gram-negative bacteria (Escherichia coli 8739, Pseudomonas aeruginosa 9027, Burkholderia cepacia 25416). As to the kind of experiment: 28-day double inoculation challenge test in sunscreen emulsion base, Gram-negative inoculum. How it is done: as §1, §2, §3, §4
The test system of test [3] is Gram-positive bacteria (Staphylococcus aureus 6538). Description: 28-day double inoculation challenge test in sunscreen emulsion base, Gram-positive inoculum. Here is the method:
as §1, §2, §3, §4

Where [4] appears, read: 0.75% active, 1.25% water in sunscreen emulsion base, pH 7, 2 days.
[5] abbreviates: 0.75% active, 1.25% water in sunscreen emulsion base, pH 7, 7 days.
Where [6] appears, read: 0.75% active, 1.25% water in sunscreen emulsion base, pH 7, 21 days (before re-inoculation).
Where [7] appears, read: 0.75% active, 1.25% water in sunscreen emulsion base, pH 7, 28 days (7 days after re-inoculation).
The mark [8] stands for this setting: 0.5% active, […] water in sunscreen emulsion base, pH 6.99, 2 days.
Where [9] appears, read: 0.5% active, […] water in sunscreen emulsion base, pH 6.99, 7 days.
Setting [10] is: 0.5% active, […] water in sunscreen emulsion base, pH 6.99, 21 days (before re-inoculation).
[11] abbreviates: 0.5% active, […] water in sunscreen emulsion base, pH 6.99, 28 days (7 days after re-inoculation).

Take `OCCCO` [1,3-Propanediol]: the plate counts recovered in test [1] (setting [4]) is listed as 3.40 × 10^4 cfu/g; in test [1] (setting [5]), 1.6 × 10^4 cfu/g; in test [1] (setting [6]), 9.5 × 10^4 cfu/g; in test [1] (setting [7]), >10^4 cfu/g; in test [2] (setting [4]), >10^4 cfu/g; in test [2] (setting [5]), <10 cfu/g. For the same compound, the plate counts recovered is listed as <10 cfu/g in test [2] (setting [6]); 2.00 × 10^2 cfu/g in test [2] (setting [7]); >10^4 cfu/g in test [3] (setting [4]); <10 cfu/g in test [3] (setting [5]); <10 cfu/g in test [3] (setting [6]).

As for `OCCCc1ccccc1` [Phenylpropanol], the plate counts recovered in test [1] (setting [4]) is reported as 3.70 × 10^4 cfu/g; in test [1] (setting [5]), 1.80 × 10^4 cfu/g; in test [1] (setting [6]) it was 4.00 × 10^3 cfu/g; in test [1] (setting [7]), >10^4 cfu/g; in test [2] (setting [4]), >10^4 cfu/g; in test [2] (setting [5]), >10^4 cfu/g. In addition, the plate counts recovered is reported as 6.00 × 10^3 cfu/g in test [2] (setting [6]); >10^4 cfu/g in test [2] (setting [7]); >10^4 cfu/g in test [3] (setting [4]); <10 cfu/g in test [3] (setting [5]); <10 cfu/g in test [3] (setting [6]); 1.30 × 10^3 cfu/g in test [3] (setting [7]).

As for `CC(=O)CCc1ccc(O)cc1` [Raspberry ketone, 4-(4-hydroxyphenyl) butan-2-one], the plate counts recovered in test [1] (setting [8]) was 2.4 × 10^4 cfu/g; in test [1] (setting [9]), 2.40 × 10^4 cfu/g; in test [1] (setting [10]), 4.4 × 10^3 cfu/g; in test [1] (setting [11]), >10^4 cfu/g; in test [2] (setting [8]), >10^4 cfu/g; in test [2] (setting [9]) it was >10^4 cfu/g. In addition, the plate counts recovered in test [2] (setting [10]) was 1.3 × 10^3 cfu/g; in test [2] (setting [11]) it was >10^4 cfu/g; in test [3] (setting [8]), >10^4 cfu/g; in test [3] (setting [9]), <10 cfu/g; in test [3] (setting [10]), <10 cfu/g; in test [3] (setting [11]), 2.1 × 10^2 cfu/g.
